Measured values taken from US7473527B2, “Compounds promoting delivery of genes” (The UAB Research Foundation, priority 2002, dated 2009).

Legend:
Assay type in all cases: cell-based
[1] = tested on: HeLa and HT29 cells; test: Adeno-associated virus luciferase gene transfer into HeLa and HT29 cells; settings: MOI 2.78, 8.33 or 22, compound 30 nM to 100 uM, 48 hours
Method: FIGS. 8A and 8B show a comparison of luciferase expression (y-axis, light units) vs. MOI (x-axis) in HeLa and HT29 cells infected with adeno-associated virus under various conditions. For these studies, cells are grown as described in Example 8. The HT29 cells are seeded at near confluency, about 300,000 cells per well, and infected with adenovirus 3-4 days later. The cells are infected with luciferase-expressing, adeno-associated virus at MOIs of 2.78, 8.33 or 22 by applying the virus to wells of cells in low serum medium for 4 hours at 37° C. In addition, the cells are incubated with gene transfer activating compound 143491 at a concentration of 30 nM, 300 nM, 10 uM, 30 uM or 100 uM along with the virus. A control set of cells is incubated with virus at MOIs of 2.78, 8.33 or 22, but no gene transfer activating compound is included. Forty-eight hours later, the cells are assayed for luciferase activity by standard techniques. Luciferase activity is enhanced in cells treated with compound 143491 compared with controls. […]
(§1) Luciferase activity is measured using a commercially available assay kit (Bright-Glo™, Promega) designed for high throughput screening. […] Luminescence is measured in a microluminometer (Harta Instrument, Gaithersburg, Md.).

[2] = tested on: HT29 cells; test: Adenovirus luciferase gene transfer into confluent HT29 cells; settings: for activation of adenovirus gene transfer (luciferase): 100 micromolar, procedure of Example 1 (MOI 50, assay 48 hours later), screen of 1032 NSC library compounds; for activation of adenovirus gene transfer (luciferase activity): MOI 1, 3 or 10, compound 30 nM, 300 nM, 10 uM, 30 uM or 100 uM, 48 hours
Method: HT29 cells are grown in 96-well plates. The cells are seeded at near confluency, about 300,000 cells per well, and infected with adenovirus 3-4 days later. […] For screening purposes, cells are grown on plastic. […] The activity of candidate compounds may be also confirmed using polarized monolayers grown on filters. Once confluent, HT29 cells are very difficult to transduce with adenoviral constructs. Fewer than 1 in 100 cells express adenoviral transgenes at multiplicity of infection (MOI) of approximately 50. A replication deficient adenovirus encoding firefly luciferase or the EGFP at an MOI of 50 for each well of cells in low serum medium is applied for 4 hours at 37° C. Confluent HeLa cells are used as a positive control. A set of cells is incubated with virus but no gene transfer activating compound as a negative control. Test drugs are incubated along with the virus. Forty-eight hours later, the cells are assayed for luciferase by standard techniques. Luciferase is assayed using a commercially available kit (Promega) which allows quantitative measurements of adenoviral gene transfer.
(§2) FIGS. 2A and 2B show a comparison of luciferase expression (y-axis, light units) vs. MOI (x-axis) in HeLa and HT29 cells infected with adenovirus under various conditions. For these studies, cells are grown in 96-well plates. The HT29 cells are seeded at near confluency, about 300,000 cells per well, and infected with adenovirus 3-4 days later. The cells are infected with luciferase-expressing, replication-deficient adenovirus at MOIs of 1, 3 or 10 by applying the virus to wells of cells in low serum medium for 4 hours at 37° C. In addition, the cells are incubated with gene transfer activating compound 675865 at a concentration of 30 nM, 300 nM, 10 uM, 30 uM or 100 uM along with the virus. A control set of cells is incubated with virus at MOIs of 1, 3 or 10, but no gene transfer activating compound is included. Forty-eight hours later, the cells are assayed for luciferase activity by standard techniques. […] FIGS. 3A and 3B present data from these experiments in which luciferase expression (y-axis, light units) is plotted vs. compound 675865 concentration (x-axis).
as §2, with “6A” for “2A”, “6B” for “2B”, “143491” for “675865”, “7A” for “3A”, “7B” for “3B”
(§3) Luciferase activity is measured using a commercially available assay kit (Bright-Glo™, Promega) designed for high throughput screening. Briefly, the Bright-Glo™ substrate is dissolved in Bright-Glo™ assay buffer at room temperature. 50 μl of the premixed Bright-Glo™ reagent is directly added to each well of the assay plate. Luminescence is measured in a microluminometer (Harta Instrument, Gaithersburg, Md.).

[3] = tested on: Calu3 cells; test: Adenovirus luciferase gene transfer into Calu3 cells grown on filters or plastic; settings: 40 μm compound; 10 MOI (FIG. 4A)
Method: Lung epithelial cells which form tight junctions in vitro, Calu3, are grown on filters (Corning Costar Transwell®—polyester—pore size 0.4 μm) or plastic well allowing apical and basolateral specialization to occur.
Calu3 cells grown as described in Example 9 are incubated with adenovirus at 10 MOI and various compounds at a concentration of 40 micromolar. FIG. 4B indicates luciferase activity measured under these conditions.
Calu3 cells grown as described in Example 9 are incubated with luciferase-expressing adenovirus and various gene transfer activating compounds.
as §3

[4] = tested on: HT29 cells; test: Adenovirus EGFP gene transfer, fluorescence microscopy; settings: 100 micromolar compound, adenovirus EGFP MOI 0.1-10, 4 hours
Method: HT29 or HeLa cells are grown in 96-well plates. The HT29 cells are seeded at near confluency, about 300,000 cells per well, and infected with adenovirus 3-4 days later. Confluent HeLa cells are used as a positive control. […] A replication deficient adenovirus encoding the EGFP gene is applied at an MOI of 0.1-10 to wells of cells in low serum medium for 4 hours at 37° C. Gene transfer activating compounds are incubated along with the virus at concentrations of 100 micromolar. Cells are visualized with a fluorescent microscope where green fluorescence indicates EGFP expression. A set of cells is incubated with virus but no gene transfer activating compound.

[5] = tested on: HT29 cells; test: Lentivirus luciferase gene transfer into HT29 cells; settings: MOI 0.002, 0.02 or 0.2, compound 30 nM to 100 uM, 48 hours
Method: FIG. 5A show a comparison of luciferase expression (y-axis, light units) vs. MOI (x-axis) in HT29 cells infected with lentivirus under various conditions. For these studies, cells are grown in 96-well plates as described in Example 8. The HT29 cells are seeded at near confluency, about 300,000 cells per well, and infected with a lentivirus vector expressing luciferase 3-4 days later. The cells are infected with lentivirus at MOIs of 0.002, 0.02 or 0.2 by applying the virus to wells of cells in low serum medium for 4 hours at 37° C. In addition, the cells are incubated with gene transfer activating compound 675865 at a concentration of 30 nM, 300 nM, 10 uM, 30 uM or 100 uM along with the virus. A control set of cells is incubated with virus at MOIs of 0.002, 0.02 or 0.2 but no gene transfer activating compound is included. Forty-eight hours later, the cells are assayed for luciferase activity by standard techniques.
FIG. 5B present data from these experiments in which luciferase expression (y-axis, light units) is plotted vs. compound 675865 concentration (x-axis).
as §1, with “screening. Briefly, the Bright-Glo™ substrate is dissolved in Bright-Glo™ assay buffer at room temperature.” for “screening.”

## COc1cccc2c1C(=O)c1c(O)c3c(c(O)c1C2=O)CC(O)(/C(C)=N/O)CC3OC1CC(N)C(O)C(C)O1 (stereo not shown) [NSC 143491]
[1]
  luciferase activity compared with controls, adeno-associated virus vector: enhanced
[2]
  activation of adenovirus gene transfer (luciferase): activation of adenovirus gene transfer
  activation of adenovirus gene transfer (luciferase activity): activation of adenovirus gene transfer

## O=C(CC(=O)c1cc(Cl)ccc1O)c1cccnc1 [NSC 73609]
[2]
  activation of adenovirus gene transfer (luciferase): activation of adenovirus gene transfer

## CN(C)CCCNc1c2ccccc2nc2ccc(F)cc12.Cl [NSC 109325]
[2]
  activation of adenovirus gene transfer (luciferase): activation of adenovirus gene transfer

## Nc1ncnc2c(C3OC(CO)C(O)C3O)nsc12 (stereo not shown) [NSC 675865]
[3]
  luciferase activity in Calu3 cells infected with luciferase expressing adenovirus: increased luciferase activity
[2]
  activation of adenovirus gene transfer (luciferase): activation of adenovirus gene transfer
  activation of adenovirus gene transfer (luciferase activity): activation of adenovirus gene transfer
[4]
  activation of adenovirus gene transfer (EGFP green fluorescence): activation of adenovirus gene transfer
[5]
  luciferase activity, lentivirus vector: enhancement of luciferase activity

## CN(C)C(=O)CCCc1ccc(N(CCCl)CCCl)cc1 [NSC 108613]
[2]
  activation of adenovirus gene transfer (luciferase): activation of adenovirus gene transfer

## COc1ccc(CC2C(=O)NC(C)C(=O)N(C)C3C(=O)N(C)C(Cc4ccc(O)c(c4)Oc4ccc(cc4)C3O)C(=O)NC(C)C(=O)NC(C)C(=O)N2C)cc1 (stereo not shown) [NSC 259968]
[2]
  activation of adenovirus gene transfer (luciferase): activation of adenovirus gene transfer

## CC1=C(C)C(C#N)(C(=O)CBr)C(=N)O1 (stereo not shown) [NSC 128720]
[2]
  activation of adenovirus gene transfer (luciferase): activation of adenovirus gene transfer

## CCCCCCCCCCCCCC[As](=O)(O)O [NSC 106191]
[2]
  activation of adenovirus gene transfer (luciferase): activation of adenovirus gene transfer

## CN(C)CCCN=c1c2ccccc2n(C)c2[nH]c(=O)n(C)c(=O)c12 [NSC 373989]
[2]
  activation of adenovirus gene transfer (luciferase): activation of adenovirus gene transfer

## O=C(O)c1ccccc1N=Cc1ccc(N(CCCl)CCCl)cc1 [NSC 101492]
[2]
  activation of adenovirus gene transfer (luciferase): activation of adenovirus gene transfer
